The IC50 is the concentration at which inhibition is half-maximal.

This experiment concerns β-catenin-TCF-mediated reporter transcription activity in Colo 205 cells. The experiment is described as follows: Colo 205 reporter assay (TCF/LEF luciferase). In kind it is cell-based. To be noted: Homo sapiens, COLO 205, 5 h, Colo 205 TCF/LEF luciferase reporter, read-out: TCF reporter Colo205 IC50. Summed up: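 Luciferase signal from a TCF/LEF-driven reporter, stably integrated in Colo 205 colon cancer cells, was measured 5 h after compound addition.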
Background: In a reporter assay the amount or activity of a reporter protein is the signal.

Setting [1] is: five hours after addition of compound.

Read-outs that look alike come from different tables or passages of the source. Where only a bound is given, the exact number is not on record here.

Take `Cc1nc(NC2CN(C(=O)c3ccc(C(F)(F)F)cc3)C2)nc2c1NC(=O)[C@H](C(C)C)N2C` [Compound 622, (S)-7-isopropyl-4,8-dimethyl-2-((1-(4-(trifluoromethyl)benzoyl)azetidin-3-yl)amino)-7,8-dihydropteridin-6(5H)-one]: under setting [1], the IC50 was less than 0.3 µM.

With `Cc1nc(NCc2cnn(Cc3ccc(F)cc3Cl)c2)nc2c1NC(=O)[C@H](C)N2C` [Compound 65, (7S)-2-(((1-(2-chloro-4-fluorobenzyl)-1H-pyrazol-4-yl)methyl)amino)-4,7,8-trimethyl-7,8-dihydropteridin-6(5H)-one], under setting [1], the IC50 was less than 0.3 µM. As to `Cc1nc(N[C@H]2CC[C@H](Oc3cc(F)c(F)c(F)c3)C2)nc2c1NC(=O)[C@H](C)N2C` (mixture of isomers) [Compound 260, (7S)-4,7,8-trimethyl-2-((trans-3-(3,4,5-trifluorophenoxy)cyclopentyl)amino)-7,8-dihydropteridin-6(5H)-one], under setting [1], the IC50 fell in the range of 0.3 to 1 µM. Still for that read-out and setting: the result for `Cc1nc(N[C@H]2C[C@@H](NC(=O)N3CCC(F)(F)CC3)C2)nc2c1NC(=O)[C@H](C(C)C)N2C` [Compound 525, 4,4-difluoro-N-(cis-3-(((S)-7-isopropyl-4,8-dimethyl-6-oxo-5,6,7,8-tetrahydropteridin-2-yl)amino)cyclobutyl)piperidine-1-carboxamide] reads not below 5 µM; that for `Cc1nc(N[C@H]2C[C@H](Oc3cc(F)c(F)c(F)c3)C2)nc2c1NC(=O)[C@H](COC(C)(C)C)N2C` [Compound 674, (S)-7-(tert-butoxymethyl)-4,8-dimethyl-2-((trans-3-(3,4,5-trifluorophenoxy)cyclobutyl)amino)-7,8-dihydropteridin-6(5H)-one], less than 0.3 µM.

In the case of `CO[C@H](C)[C@H]1C(=O)Nc2c(C)nc(N[C@H]3C[C@@H](Nc4cnc(C(F)(F)F)cn4)C3)nc2N1C` [Compound 647, (S)-7-((R)-1-methoxyethyl)-4,8-dimethyl-2-((cis-3-((5-(trifluoromethyl)pyrazin-2-yl)amino)cyclobutyl)amino)-7,8-dihydropteridin-6(5H)-one], under setting [1], the IC50 is less than 0.3 µM.

For `Cc1nc(N[C@H]2C[C@@H](COc3ccc4c(c3)OCO4)C2)nc2c1NC(=O)[C@H](C(C)C)N2C` [Compound 580, (S)-2-((cis-3-((benzo[d][1,3]dioxol-5-yloxy)methyl)cyclobutyl)amino)-7-isopropyl-4,8-dimethyl-7,8-dihydropteridin-6(5H)-one], the IC50 under setting [1] was in the range of 0.3 to 1 µM. `Cc1nc(N[C@H]2C[C@@H](Nc3ccc(OC(F)(F)F)cn3)C2)nc2c1NC(=O)[C@H](C)N2C` [Compound 577, (S)-4,7,8-trimethyl-2-((cis-3-((5-(trifluoromethoxy)pyridin-2-yl)amino)cyclobutyl)amino)-7,8-dihydropteridin-6(5H)-one]: the IC50 under setting [1] is 0.3 to 1 µM. As to `Cc1nc(NCc2cnn(Cc3ccc(OC(F)F)nc3)c2)nc2c1NC(=O)[C@@H](C(C)C)N2C` [Compound I-1642], the IC50 (R-isomer at C2 (corresponding to C2 S-isomer), 5 h) lay within 1 to 5 µM. `Cc1nc(N[C@H]2CC[C@H](N(C)c3ccc(C(F)(F)F)cc3)C2)nc2c1NC(=O)[C@H](C(C)C)N2C` [Compound 503, (S)-7-isopropyl-4,8-dimethyl-2-(((1S,3S)-3-(methyl(4-(trifluoromethyl)phenyl)amino)cyclopentyl)amino)-7,8-dihydropteridin-6(5H)-one]: under setting [1], the IC50 fell in the range of 1 to 5 µM. The same measure, in the same setting: the result for `COc1ccc(O[C@H]2C[C@H](Nc3nc(C)c4c(n3)N(C)[C@@H](C)C(=O)N4)C2)cc1` [Compound 342, (7S)-2-((trans-3-(4-methoxyphenoxy)cyclobutyl)amino)-4,7,8-trimethyl-7,8-dihydropteridin-6(5H)-one] reads 1 to 5 µM. Same read-out and setting: with `Cc1nc(NCc2cnn([C@@H]3CCN(C4CCC(F)(F)CC4)C3)c2)nc2c1NC(=O)[C@H](C)N2C` [Compound 127, (7S)-2-(((1-((R)-1-(4,4-difluorocyclohexyl)pyrrolidin-3-yl)-1H-pyrazol-4-yl)methyl)amino)-4,7,8-trimethyl-7,8-dihydropteridin-6(5H)-one] the figure was 0.3 to 1 µM.
